Reference: PubChem BioAssay AID1159536 (DiRusso Lab, Biochemistry Department, University of Nebraska, 2015)
pEC50: −log10 of the molar value. Inconclusive results are not listed. Activity calls are given as the source filed them. No rule for the calls is given here.

System: Chlamydomonas reinhardtii, Nile Red lipid fluorescence, 72 h
Assay: compounds raising TAG storage in Chlamydomonas – qHTS, Chlamydomonas reinhardtii, dose response (AID 1159536)

**Q.** Which EC50 does the source give for `CC(C(=O)NCc1ccc(Cl)cc1)N(c1ccccc1)S(C)(=O)=O` (stereo unspecified) here?
**A.** 11300 nM (inactive)

**Q.** With `CSc1ccc(CN2CCSCC2)cc1` as the compound, how does the EC50 read?
**A.** 10500 nM (inactive)

**Q.** `O=C(Nc1ccccc1C(=O)Nc1ccccc1Cl)c1ccncc1` was tested. Which pEC50 did it give?
**A.** 5.02

**Q.** How did the pEC50 turn out when `COc1ccccc1N1CCN(C2CCN(Cc3cccc(F)c3)CC2)CC1` was run?
**A.** 4.98

**Q.** With `C1=CC2CC1CC2CN1CCN(C2CCC(c3ccccc3)CC2)CC1` (stereo unspecified) as the compound, how does the pEC50 read?
**A.** 5.84

**Q.** `O=C(c1ccc([N+](=O)[O-])cc1)N1CCN(CC2CC3C=CC2C3)CC1` (stereo unspecified) was tested. Which pEC50 did it give?
**A.** 5.22

**Q.** `Nc1ccc(C(=O)Nc2ccc(Cl)cc2Cl)cc1` was tested. Which pEC50 did it give?
**A.** 5.83

**Q.** `Cc1cc(Br)ccc1OCCCCN1CCN(C)CC1` was tested. Which pEC50 did it give?
**A.** 5.47

**Q.** `Cc1ccccc1OCCCCN1CCOCC1` was tested. Which pEC50 did it give?
**A.** 5.01

**Q.** How did the pEC50 turn out when `CC(C)(C)c1ccc(OCC(O)CN2CCN(CCO)CC2)cc1` (stereo unspecified) was run?
**A.** 5.89

**Q.** Which EC50 does the source give for `CC(=O)N(C1=C(N(C)C)C(=O)c2ccccc2C1=O)c1ccc(Cl)c(Cl)c1` here?
**A.** 2650 nM (inactive)

**Q.** How did the pEC50 turn out when `Brc1ccc(CN2CCN(c3ccccc3)CC2)cc1` was run?
**A.** 4.66

**Q.** `CC(C)(Oc1ccc(Cl)cc1)C(=O)Nc1ccc(Br)cc1F` was tested. Which EC50 did it give?
**A.** 1810 nM (inactive)

**Q.** With `O=[N+]([O-])c1ccc(CN2CCN(C3CC4CCC3C4)CC2)cc1` (stereo unspecified) as the compound, how does the pEC50 read?
**A.** 5.60

**Q.** With `COc1ccc(CN2CCN(Cc3ccccc3)CC2)c(OC)c1OC` as the compound, how does the pEC50 read?
**A.** 4.94

**Q.** With `O=[N+]([O-])c1ccc(CN2CCN(c3ccccc3)CC2)cc1` as the compound, how does the pEC50 read?
**A.** 6.76

**Q.** For `O=C(Nc1ccc(Cc2ccncc2)cc1)c1cc(Br)ccc1Cl`, which EC50 is on record?
**A.** 2290 nM (inactive)

**Q.** How did the pEC50 turn out when `Cc1cc(OCCN2CCN(C)CC2)ccc1C(C)C` was run?
**A.** 5.59

**Q.** How did the pEC50 turn out when `CCC(C)c1ccc(OCCCN2CCN(C)CC2)cc1` (stereo unspecified) was run?
**A.** 6.04

**Q.** How did the pEC50 turn out when `CC1CCC(N2CCN(c3ccccc3)CC2)C1` (stereo unspecified) was run?
**A.** 6.20

**Q.** `CCC1CCC(N2CCN(CC)CC2)CC1` (stereo unspecified) was tested. Which pEC50 did it give?
**A.** 5.60

**Q.** How did the pEC50 turn out when `Cc1ccc(CN2CCCC(CO)C2)cc1` (stereo unspecified) was run?
**A.** 5.00

**Q.** How did the pEC50 turn out when `Cc1cccc(N2CCN(C(=O)C3CCN(CC4CCCCC4)CC3)CC2)c1C` was run?
**A.** 5.34

**Q.** With `CC1CCCN(C(=O)COc2ccc(Cl)cc2)C1` (stereo unspecified) as the compound, how does the pEC50 read?
**A.** 5.90

**Q.** How did the pEC50 turn out when `C=CCc1cccc(C)c1OCCCN1CCN(C)CC1` was run?
**A.** 5.71

**Q.** With `Cc1ccc2nc(NC(=O)C3CC3)sc2c1` as the compound, how does the EC50 read?
**A.** 15100 nM (inactive)

**Q.** With `Cc1cc(Br)ccc1OCCOCCN1CCOCC1` as the compound, how does the pEC50 read?
**A.** 5.11

**Q.** Which EC50 does the source give for `O=C(Nc1ccccc1)Nc1ccccc1C(=O)N1CCOCC1` here?
**A.** 22200 nM (inactive)

**Q.** For `O=C(O)C1CC=CCC1C(=O)Nc1ccc(F)cc1F` (stereo unspecified), which EC50 is on record?
**A.** 13200 nM (inactive)

**Q.** `C1=CC2CC1CC2CN1CCN(Cc2ccco2)CC1` (stereo unspecified) was tested. Which pEC50 did it give?
**A.** 5.60

**Q.** How did the pEC50 turn out when `CCN1CCN(C2CCC(c3ccccc3)CC2)CC1` (stereo unspecified) was run?
**A.** 5.75

**Q.** `Cc1ccc(OCCCCN2CCCC2)cc1C` was tested. Which pEC50 did it give?
**A.** 5.28

**Q.** How did the pEC50 turn out when `COc1ccc(CN2CCN(Cc3ccc([N+](=O)[O-])cc3)CC2)cc1OC` was run?
**A.** 5.60

**Q.** How did the pEC50 turn out when `Clc1ccc(N2CCN(Cc3ccsc3)CC2)cc1` was run?
**A.** 5.90

**Q.** `C1=CC2CC1CC2CN1CCN(c2ccccc2)CC1` (stereo unspecified) was tested. Which pEC50 did it give?
**A.** 7.07

**Q.** With `CN1CCN(CCCOc2cc(Cl)ccc2Cl)CC1` as the compound, how does the pEC50 read?
**A.** 4.85

**Q.** `O=[N+]([O-])c1ccccc1CN1CCN(CC2CC3C=CC2C3)CC1` (stereo unspecified) was tested. Which EC50 did it give?
**A.** 11700 nM (inactive)

**Q.** How did the EC50 turn out when `COc1ccc(C(=O)Nc2sc3c(c2C(N)=O)CCC(C)C3)c(OC)c1` (stereo unspecified) was run?
**A.** 15800 nM (inactive)

**Q.** With `CCC(C)c1ccccc1OCCCN1CCOCC1` (stereo unspecified) as the compound, how does the pEC50 read?
**A.** 5.43

**Q.** `COc1ccccc1N1CCN(C2CCN(CC3CC4C=CC3C4)CC2)CC1` (stereo unspecified) was tested. Which pEC50 did it give?
**A.** 4.98

**Q.** `CCN(CC)CC#CCOc1ccccc1` was tested. Which pEC50 did it give?
**A.** 4.94

**Q.** `CCC(C)c1ccccc1OCCCCN1CCCC1` (stereo unspecified) was tested. Which pEC50 did it give?
**A.** 5.57

**Q.** `CN(CCc1ccccc1)C1CCN(Cc2ccccc2)CC1` was tested. Which pEC50 did it give?
**A.** 7.66

**Q.** `Cc1ccc2nc(SCc3ccccc3)c(C=O)c(=O)n2c1` was tested. Which pEC50 did it give?
**A.** 5.39

**Q.** `Clc1ccc(OCCCCN2CCOCC2)c(Br)c1` was tested. Which pEC50 did it give?
**A.** 6.07

**Q.** `CC1CCCCN1S(=O)(=O)c1ccc(NC(=O)c2ccc(Cl)cc2Cl)cc1` (stereo unspecified) was tested. Which EC50 did it give?
**A.** 2560 nM (inactive)

**Q.** `COc1ccccc1N1CCN(C2CCN(Cc3cccc(Cl)c3)CC2)CC1` was tested. Which pEC50 did it give?
**A.** 5.00

**Q.** `COc1ccccc1N1CCN(Cc2ccc(F)cc2)CC1` was tested. Which pEC50 did it give?
**A.** 5.55

**Q.** `CCOc1ccc(C2=CSC3=NCCN23)cc1` was tested. Which EC50 did it give?
**A.** 13700 nM (inactive)

**Q.** `CN1CC=C(CNc2cccc3c2CCCC3)CC1` was tested. Which pEC50 did it give?
**A.** 5.59

**Q.** For `COCCNS(=O)(=O)c1cc(Cl)ccc1OC`, which EC50 is on record?
**A.** 2980 nM (inactive)

**Q.** With `COc1cc(Cl)c(S(=O)(=O)NCCCN2CCOCC2)cc1Cl` as the compound, how does the pEC50 read?
**A.** 5.44

**Q.** `Cc1cc(C)c(OCCCCN2CCNCC2)c(C)c1` was tested. Which pEC50 did it give?
**A.** 5.58

**Q.** `CCN1CCC(N2CCN(c3ccc(Cl)cc3)CC2)CC1` was tested. Which pEC50 did it give?
**A.** 5.59

**Q.** With `Clc1cc(Br)ccc1OCCCCN1CCOCC1` as the compound, how does the pEC50 read?
**A.** 5.88

**Q.** How did the EC50 turn out when `O=C(Nc1ccc(Cc2ccncc2)cc1)c1ccc([N+](=O)[O-])cc1Cl` was run?
**A.** 1210 nM (inactive)

**Q.** How did the pEC50 turn out when `NC(=O)c1cc(-c2ccccc2)sc1NC(=O)c1ccc(OC(F)F)cc1` was run?
**A.** 6.81

**Q.** `COc1ccc(CN2CCN(CC3CC4C=CC3C4)CC2)cc1OC` (stereo unspecified) was tested. Which pEC50 did it give?
**A.** 5.41

**Q.** With `CCN1CCN(C2CCC(C)CC2)CC1` (stereo unspecified) as the compound, how does the pEC50 read?
**A.** 5.00

**Q.** How did the pEC50 turn out when `Cc1cc(C)c(S(=O)(=O)N2CCN(C)CC2)cc1Br` was run?
**A.** 4.80

**Q.** Which EC50 does the source give for `COc1ccc(CNCc2ccc(C)cc2)c(OC)c1` here?
**A.** 9940 nM (inactive)

**Q.** How did the pEC50 turn out when `C=C(C)CN(CC)C(=O)C1CCN(Cc2ccc(Cl)cc2)CC1` was run?
**A.** 6.19

**Q.** For `CC(=O)Nc1ccc(S(=O)(=O)Nc2cc([N+](=O)[O-])ccc2C)cc1`, which EC50 is on record?
**A.** 3210 nM (inactive)

**Q.** With `CCc1ccc(CN2CCN(CCO)CC2)cc1` as the compound, how does the pEC50 read?
**A.** 5.12

**Q.** `Cc1cc(C)c(NC(=O)COc2ccccc2[N+](=O)[O-])c(C)c1` was tested. Which EC50 did it give?
**A.** 3130 nM (inactive)

**Q.** How did the pEC50 turn out when `O=C(c1ccc(CN2CCc3ccccc3C2)cc1)N1CCN(c2ccccc2F)CC1` was run?
**A.** 5.22

**Q.** With `COc1cc(C(=O)Nc2nc3c(s2)CCCC3)cc(OC)c1OC` as the compound, how does the EC50 read?
**A.** 379 nM (inactive)

**Q.** `Cc1c(NC(=O)COc2ccc(Br)cc2)cccc1[N+](=O)[O-]` was tested. Which EC50 did it give?
**A.** 1370 nM (inactive)

**Q.** How did the pEC50 turn out when `COc1ccccc1N1CCN(Cc2ccc(C)cc2)CC1` was run?
**A.** 5.44

**Q.** How did the pEC50 turn out when `Cc1cc(C)c(S(=O)(=O)NCCCN2CCOCC2)cc1Br` was run?
**A.** 6.11

**Q.** With `O=C(CN1CCCCC1)Nc1ncc(Cc2ccc(Br)cc2)s1` as the compound, how does the EC50 read?
**A.** 1270 nM (inactive)

**Q.** With `CCN1CCN(Cc2ccc(N(CC)CC)cc2)CC1` as the compound, how does the pEC50 read?
**A.** 6.30

**Q.** How did the pEC50 turn out when `CCN(CC)CC(=O)Nc1ccc(Br)cc1` was run?
**A.** 4.98

**Q.** With `CN1CCC(N(C)Cc2cc(Cl)ccc2O)CC1` as the compound, how does the pEC50 read?
**A.** 5.59

**Q.** For `CC(C)C(NS(=O)(=O)c1cccs1)C(C)C`, which EC50 is on record?
**A.** 21600 nM (inactive)

**Q.** How did the pEC50 turn out when `Cc1cc(C)c(C)c(OCCCCN2CCOCC2)c1` was run?
**A.** 4.82

**Q.** With `Cc1ccc(OCCOCCN2CCOCC2)c([N+](=O)[O-])c1` as the compound, how does the pEC50 read?
**A.** 5.57

**Q.** With `CC(C)(Oc1ccc(Cl)cc1)C(=O)N1CCN(c2ccc(F)cc2)CC1` as the compound, how does the EC50 read?
**A.** 2130 nM (inactive)

**Q.** How did the pEC50 turn out when `c1ccc(CN2CCC(N3CCN(C4CC5CCC4C5)CC3)CC2)cc1` (stereo unspecified) was run?
**A.** 5.00

**Q.** With `COc1cc(C(=O)Nc2ccc(S(=O)(=O)Nc3ncccn3)cc2)cc(OC)c1OC` as the compound, how does the EC50 read?
**A.** 30900 nM (inactive)

**Q.** How did the pEC50 turn out when `CC(C)NC(=O)c1ccccc1NC(=O)c1ccc(Br)cc1` was run?
**A.** 6.00

**Q.** With `CCOc1ccc(CN2CCN(c3ccccc3OC)CC2)cc1` as the compound, how does the pEC50 read?
**A.** 5.88

**Q.** With `CN(CCC#N)C12CC3CC(CC(C3)C1)C2` as the compound, how does the pEC50 read?
**A.** 5.06

**Q.** How did the pEC50 turn out when `Cc1cc(Br)ccc1OCCCN1CCN(C)CC1` was run?
**A.** 5.66

**Q.** `c1ccc(CN2CCN(C3CCCCC3)CC2)cc1` was tested. Which pEC50 did it give?
**A.** 5.00

**Q.** With `COc1ccc(CN(C)C2CCCCC2)cc1` as the compound, how does the pEC50 read?
**A.** 5.56

**Q.** How did the pEC50 turn out when `Cc1cc(Br)ccc1OCCCCN1CCCC1` was run?
**A.** 5.57

**Q.** `Clc1ccc(OCCCN2CCOCC2)c(Br)c1` was tested. Which pEC50 did it give?
**A.** 4.98

**Q.** How did the EC50 turn out when `CCOc1ccccc1C(=O)NC1CC1` was run?
**A.** 26500 nM (inactive)

**Q.** `c1ccc(CCc2nc(-c3ccncc3)no2)cc1` was tested. Which pEC50 did it give?
**A.** 5.30

**Q.** How did the pEC50 turn out when `COc1ccc(OC)c(CN2CCN(Cc3ccc([N+](=O)[O-])cc3)CC2)c1` was run?
**A.** 5.87
